Results taken from US8791158B2, “Methods of treating meibomian gland dysfunction” (GTX, Inc., priority 2010, dated 2014).

Assay: Plasma concentration of Compound 2 after topical or subcutaneous dosing, Example 3
Type: in vivo, rabbit
Conditions: one hour after last dose, LCMS
Method: Drug dosing was done once daily for 14 days. Blood was collected at 60 minutes post administration of the last dose of drug and plasma separated for HPLC analysis of parent drug concentrations.
To normalize for the tear content, the lipid composition was expressed as a ratio of the lipid that was most affected by castration (palmitate) to one which remained relatively constant (stearate). Blood was also collected on day 15 (24 hours after last drug administration) of the study, plasma separated and analyzed for Compound 2.
Systemic exposures after topical and subcutaneous administration were determined in peripheral blood samples collected one hour after drug administration on the last day of the study. Plasma concentrations of Compound 2 were measured using LCMS. Mean plasma concentrations of Compound 2 following topical administration were 1177±398.72 nM, while mean levels were 1210±311.93 nM in animals that received subcutaneous (SQ) doses.

C[C@](O)(COc1ccc(C#N)c(F)c1)C(=O)Nc1ccc(C#N)c(C(F)(F)F)c1 [Compound 2, (S)—N-(4-cyano-3-(trifluoromethyl)phenyl)-3-(4-cyano-3-fluorophenoxy)-2-hydroxy-2-methylpropanamide]
concentration at 1 h (rabbit, plasma, subcutaneous 2.5 mg/kg): 1210 ± 312 nM
concentration at 1 h (rabbit, plasma, topical 2.5 mg/kg): 1180 ± 399 nM
concentration at 1 h (subcutaneous 2.5 mg/kg): 1210 nM
concentration at 1 h (topical 2.5 mg/kg): 1177 nM
